Here are results for eight molecules from patent US20250042882A1, “CERTAIN 3-AZABICYCLO[3.1.0]HEXANES AS GLP-1 RECEPTOR MODULATORS” (AstraZeneca AB, priority 2021, published 2025).

For one assay, the target named is T1, human GLP-1R receptor (Homo sapiens, UniProt P43220, L260F).
T1 construct: expressed in transfected cells; host or cells: CHO-K1 (ATCC CCL-61)
The experiment in a line: CHOK1 GLP-1R cAMP Assay. Conditions: CHO-K1 cell line stably expressing human GLP-1R (Leu260Phe variant); HTRF cAMP; agonist activity. The class given is cell-based. The procedure:
A cell line stably expressing the human GLP-1R receptor (NM_002062.5, including the naturally-occurring variant Leu260Phe) in a CHO-K1 (ATCC® CCL-61™) was used for assay.
GLP-1 receptor mediated agonist activity was determined in a cell-based assay measuring cyclic adenosine monophosphate (cAMP) levels in cells using Homogeneous Time-Resolved Fluorescence (HTRF) cAMP detection kit (CisBio catalog #62AM4PEC, cAMP Gs Dynamic range kit). The cAMP detection method is based on a competitive immunoassay, in which cAMP produced by the cells and cAMP labeled with the dye d2 compete for binding to a Europium-Cryptate-labeled anti-cAMP antibody. The specific HTRF signal is inversely proportional to the concentration of cAMP.
Compounds were added to individual well in 384 well-assay plates (Greiner #784076) using an Echo (LabCyte) dispenser from 10 mM stocks. Varying concentration of compounds were added to wells, and DMSO was used to normalize each well to a volume of 100 nL. A dose response curve of GLP-1(7-36)NH2 (Bachem H-6795) was included in each run. 5 μL of cAMP concentration response standards are applied in specified wells in the assay plates. Cryo-preserved cells are thawed and resuspended in assay buffer pre-heated to 37° C. (20 mM HEPES pH 7.4, 1× Hank's Balanced Salt Solution (HBSS, Life Technologies #14065) supplemented with 0.1% (w/v) bovine serum albumin (Sigma, A-7030). Cells were centrifuged at 250*g for 5 min at rt, and resuspended in room tempered assay buffer to a final density of 0.16*10^6 cell/mL, to deliver 800 cells/well. 5 μL of assay buffer with 1 mM 3-isobutyl-1-methylxanthin (IBMX; Sigma cat I-7018) was dispensed per well in assay plates using a multidrop combi (Thermo Scientific) subsequently 5 μL of cell suspension was distributed to relevant wells in the assay using a multidrop dispenser. Assay plates were incubated 20 min at rt.
Detection reagents, Europium-Cryptate-labeled anti-cAMP antibody and cAMP labeled with the dye d2, are diluted in lysis buffer, provided by the manufacturer. 5 μL of each detection reagent is supplemented to each assay well using a multidrop dispenser. Assay plates are incubated in the dark for at least one h. The HTRF signal is measured using the HTRF module (excitation: 337 nm, emission A: 665 nm and emission B: 620 nm) in Pherastar FSX (BMG Labtech).
Raw data were converted to pM cAMP using the cAMP standard curve included in each run.
Converted data were further analyzed in Genedata Screener (Genedata) and EC50 determinations were made from agonist dose-response curves analyzed with a curve fitting program using a 4-parameter logistic dose response equation (Equation y=A+((B−A)/1+((C/x)^D))) where A is no stimulation, B is full stimulation, C is the EC50 and D is the Hill slope). The percent effect was determined relative to a saturating concentration of a full GLP-1R agonist (GLP-1(7-36)NH2 has 100% effect in this assay setup).

The next assay deals with T2, GLP-1R (Homo sapiens, UniProt P43220).
T2 construct: host or cells: EndoC-βH1 human pancreatic beta cell line
The experiment in a line: EndoC cAMP Accumulation Assay. The format is cell-based. The note with it: EndoC-βH1 human pancreatic β cell line; HTRF cAMP accumulation. The source says:
EndoC cAMP Accumulation Assay
A HTRF cAMP assay (cAMP Gs dynamic kit; CisoBio Cat #62AM4PEJ) was used to identify agonists of GLP-1R in a pancreatic insulinoma cell line (EndoC-⊕H1). […] EndoC-PHlcells have detectable GLP-1R messenger ribonucleic acid (mRNA) as detected by quantitative polymerase chain reaction (qPCR). […] The EndoC-PH1 cell line is a valid model of human beta cells and applicable for screenings to identify novel drug target candidates (Mol. Metab., 2018, 8, 144-157). CisBio HTRF cAMP kits are based on a competitive immunoassay using cryptate-labelled anti-cAMP antibody and d2-labeled cAMP. The detection kit is intended for the direct quantitative determination of cAMP. The specific signal (i.e. energy transfer) is inversely proportional to the concentration of cAMP in the standard or sample. Test compounds (10 mM in DMSO) were diluted into assay buffer (HBSS (Sigma #H8264) supplemented with 25 mM HEPES (Gibco #15630, pH 7.4), 0.1% BSA (Sigma #A3059) and 0.5 mM IBMX (Sigma #I7018) included fresh on the day of the assay) into 96 well U-bottom plates (Greiner #650201). Diluted compounds were transferred to ECHO source polypropylene plates (Labcyte #P-05525) and dose response curves were dispensed acoustically using ECHO 550 into black shallow-well u-bottom 384-well HTRF Assay Plates (Corning 4514).
Cryovials of EndoC-H1 (supplied at 1×10e^7 cells/vial) were used directly for screening. The cryovials and were removed from N2(l) and thawed rapidly in a 37° C. water bath. The cells were resuspended in assay buffer and centrifuged at 300 g for 5 min. Cells were resuspended in assay buffer at the appropriate concentration, typically at 12e5 cells per mL (3000 cells per well, dependent on cell batch) and 2.5 μL diluted cells were added to all wells of destination plate by Multidrop combi reagent dispenser (Thermofisher). The plates were incubated at rt for 30 min. The assay was stopped by adding 2.5 μL anti-cAMP cryptate solution to all wells and 2.5 μL cAMP-d2 solution (both diluted 1:20 in lysis buffer) to columns 1-22 by Combi drop. A volume of 2.5 μL cAMP-d2 solution was added to wells E23 to P24 and 2.5 μL lysis buffer added to wells A23 to D24 by multichannel pipette. The plates were incubated at rt for 1 h and read on an Envision plate reader using excitation wavelength of 320 mn and emission of 590 nm and 660 nm.
Raw data from Envision is converted to % DeltaF according to the manufacturer's instructions. Dose response curves are analysed via 4-Parameter Logistical Analysis and assay plate Z′ values obtained. Samples are graphed as percentage (%) activation plots compared to GIP (1-42, Bachem H-5645) with assay window defined by negative control as basal cell cAMP levels and positive control are defined by maximum GIP (82.5 nM) signal. GLP-1 (7-36 amide, Bachem H-6795) dose response curve was included on all plates.
(Time-resolved FRET reads energy transfer from a long-lived donor to a nearby acceptor.)

Assay [1] addresses T3, human phosphodiesterase-3A (Homo sapiens, UniProt Q14432).
T3 construct: host or cells: Sf9 (Spodoptera frugiperda)
Description: PDE3 Assay. The class given is biochemical. The note with it: human recombinant enzyme expressed in Sf9 cells; formation of 5′AMP from cAMP, SPA. The procedure:
Evaluation of the effects of compounds on the activity of the human phosphodiesterase-3A is quantified by measuring the formation of 5′AMP from cAMP using a human recombinant enzyme expressed in a clonal isolate of Spodoptera frugiperda cells (Sf9) cells.
The test compound, reference compound or water (control) are added to a buffer containing 40 mM tris(hydroxymethyl)aminomethane (Tris)/HCl (pH 7.4) and 8 mM MgCl2, 450 nMcAMP and 0.25 μCi [^3H]cAMP.
Thereafter, the reaction is initiated by addition of the enzyme (about 1 U) and the mixture is incubated for 20 min at 22° C.
For basal control measurements, the enzyme is omitted from the reaction mixture.
Following incubation SPA beads are added. After 30 min at 22° C. under shaking, the amount of [^3H]5′AMP is quantified with a scintillation counter (Topcount, Packard).
The results are expressed as a percent inhibition of the control enzyme activity. The standard inhibitory reference compound is milrinone (CAS number 78415-72-2), which is tested in each experiment at several concentrations to obtain an inhibition curve from which its IC50 value is calculated.

Some results are limits rather than exact numbers.

T1 sequence (P43220 24-463 L260F): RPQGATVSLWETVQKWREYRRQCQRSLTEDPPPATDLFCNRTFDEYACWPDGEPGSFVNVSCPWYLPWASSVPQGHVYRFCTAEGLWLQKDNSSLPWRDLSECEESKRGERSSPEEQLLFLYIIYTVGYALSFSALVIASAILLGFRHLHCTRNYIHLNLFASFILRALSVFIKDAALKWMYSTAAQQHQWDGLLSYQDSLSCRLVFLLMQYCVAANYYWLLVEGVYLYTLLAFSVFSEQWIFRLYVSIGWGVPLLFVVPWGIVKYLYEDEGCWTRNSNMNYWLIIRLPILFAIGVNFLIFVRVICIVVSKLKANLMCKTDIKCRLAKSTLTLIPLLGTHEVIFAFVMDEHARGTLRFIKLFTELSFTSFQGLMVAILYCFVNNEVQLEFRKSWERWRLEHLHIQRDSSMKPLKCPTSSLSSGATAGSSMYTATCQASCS
T3 sequence (Q14432 whole entry): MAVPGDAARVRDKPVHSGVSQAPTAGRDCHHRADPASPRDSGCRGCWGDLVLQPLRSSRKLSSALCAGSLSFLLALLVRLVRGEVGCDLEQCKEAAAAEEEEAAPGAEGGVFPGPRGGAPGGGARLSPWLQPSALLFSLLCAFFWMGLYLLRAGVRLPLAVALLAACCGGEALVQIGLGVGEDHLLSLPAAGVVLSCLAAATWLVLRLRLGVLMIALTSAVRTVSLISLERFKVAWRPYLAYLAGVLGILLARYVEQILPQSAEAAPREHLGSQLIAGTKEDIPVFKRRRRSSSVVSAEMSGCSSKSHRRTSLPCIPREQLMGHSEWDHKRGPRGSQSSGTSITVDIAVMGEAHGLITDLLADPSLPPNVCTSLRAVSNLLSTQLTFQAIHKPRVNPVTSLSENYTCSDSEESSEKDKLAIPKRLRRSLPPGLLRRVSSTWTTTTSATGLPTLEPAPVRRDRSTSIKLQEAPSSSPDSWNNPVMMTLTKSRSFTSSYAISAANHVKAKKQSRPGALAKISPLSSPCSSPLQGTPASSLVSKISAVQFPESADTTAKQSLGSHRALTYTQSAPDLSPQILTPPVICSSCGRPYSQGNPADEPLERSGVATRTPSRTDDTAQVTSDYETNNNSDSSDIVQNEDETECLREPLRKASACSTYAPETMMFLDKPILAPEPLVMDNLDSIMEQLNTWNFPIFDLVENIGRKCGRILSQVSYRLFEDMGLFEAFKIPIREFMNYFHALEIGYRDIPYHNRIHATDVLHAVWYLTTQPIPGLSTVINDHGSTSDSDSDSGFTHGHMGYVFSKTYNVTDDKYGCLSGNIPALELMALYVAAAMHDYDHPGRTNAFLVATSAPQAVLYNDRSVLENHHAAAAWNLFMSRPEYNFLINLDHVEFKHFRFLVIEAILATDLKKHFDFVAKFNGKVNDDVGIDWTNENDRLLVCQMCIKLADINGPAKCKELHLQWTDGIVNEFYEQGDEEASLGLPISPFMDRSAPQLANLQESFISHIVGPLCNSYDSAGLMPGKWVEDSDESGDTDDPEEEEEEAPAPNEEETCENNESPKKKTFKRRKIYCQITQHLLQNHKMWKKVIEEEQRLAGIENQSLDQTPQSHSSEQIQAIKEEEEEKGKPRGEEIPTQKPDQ
T2 sequence (P43220 24-463): as the sequence (P43220 24-463 L260F) above, with F237L counted along it

As usually defined, the EC50 is the concentration that produces a half-maximal response. High values mean a need for much substance, low ones an effect from little substance. In general, IC50 refers to the concentration needed to halve the response being measured. For `COc1cc(C(=O)O)cc2c1nc(CN1C[C@@H]3[C@H](C1)[C@H]3c1cccc3c1O[C@](C)(c1ccc(Cl)cc1F)O3)n2CC1CCO1` (relative stereo) [Example 2, 2-(((1R,5S,6R)-6-((R*)-2-(4-Chloro-2-fluorophenyl)-2-methylbenzo[d][1,3]dioxol-4-yl)-3-azabicyclo[3.1.0]hexan-3-yl)methyl)-4-methoxy-1-(((S)-oxetan-2-yl)methyl)-1H-benzo[d]imidazole-6-carboxylic acid], the EC50 on human GLP-1R receptor was found to be 14 nM; at GLP-1R, 15 nM. In addition, in assay [1], the IC50 was more than 10 µM.

With `N#Cc1ccc(COc2cccc(C3CCN(Cc4nc5ccc(C(=O)O)cc5n4C[C@@H]4CCO4)CC3)n2)c(F)c1` [Ref Comp B, reference compound], the IC50 in assay [1] stood at 11 µM.

With “2-(((1R,5S6R)-6-((R*)-2-(5-Chloropyridin-2-yl)-5-fluoro-2-methylbenzo[d][1,3]dioxol-4-yl)-3-azabicyclo[3.1.0]hexan-3-yl)methyl)-4-fluoro-1-(((S)-oxetan-2-yl)methyl)-1H-benzo[d]imidazole-6-carboxylic acid [Example 10a]”, the EC50 on human GLP-1R receptor stood at 19 nM; on GLP-1R, 13 nM. Further, the IC50 in assay [1] is more than 100 µM.

In the case of `COc1cc(C(=O)O)cc2c1nc(CN1C[C@@H]3[C@H](C1)[C@H]3c1cccc3c1O[C@](C)(c1ccc(Cl)cn1)O3)n2CC1CCO1` (single isomer, unassigned) [Example 4a, 2-(((1R,5S,6R)-6-((R*)-2-(5-Chloropyridin-2-yl)-2-methylbenzo[d][1,3]dioxol-4-yl)-3-azabicyclo[3.1.0]hexan-3-yl)methyl)-4-methoxy-1-(((S)-oxetan-2-yl)methyl)-1H-benzo[d]imidazole-6-carboxylic acid], the results for the EC50 at human GLP-1R receptor and on GLP-1R were 280 nM and 350 nM, respectively.

As to `CCn1cncc1Cn1c(CN2C[C@@H]3[C@H](C2)[C@H]3c2cccc3c2O[C@](C)(c2ccc(Cl)cn2)O3)nc2c(OC)cc(C(=O)O)cc21` (relative stereo) [Example 13, 2-((1R,5S,6s)-6-(R*)-2-(5-Chloropyridin-2-yl)-2-methylbenzo[d][1,3]dioxol-4-yl)-3-azabicyclo[3.1.0]hexan-3-yl)methyl)-1-((1-ethyl-1H-imidazol-5-yl)methyl)-4-methoxy-1H-benzo[d]imidazole-6-carboxylic acid], the values for the EC50 on human GLP-1R receptor and on GLP-1R were 8.1 nM and 4.1 nM, respectively.

As for “4-Chloro-2-(((1R,5S,6R)-6-((R*)-2-(5-chloropyridin-2-yl)-5-fluoro-2-methylbenzo[d][1,3]dioxol-4-yl)-3-azabicyclo[3.1.0]hexan-3-yl)methyl)-1-(((S)-oxetan-2-yl)methyl)-1H-benzo[d]imidazole-6-carboxylic acid [Example 8b]”, the figures for the EC50 on human GLP-1R receptor and on GLP-1R were 8.2 nM and 9.6 nM, respectively.

Turning to `CC1(c2ccc(Cl)cc2F)Oc2cccc([C@H]3[C@@H]4CN(Cc5nc6ccc(C(=O)O)cc6n5CC5CCO5)C[C@@H]43)c2O1` (stereo partly drawn) [Example 1, 2-(((1R,5S,6R)-6-(2-(4-Chloro-2-fluorophenyl)-2-methylbenzo[d][1,3]dioxol-4-yl)-3-azabicyclo[3.1.0]hexan-3-yl)methyl)-1-(((S)-oxetan-2-yl)methyl)-1H-benzo[d]imidazole-6-carboxylic acid], the figures for the EC50 at human GLP-1R receptor and at GLP-1R were 180 nM and 69 nM, respectively.

In the case of `CCn1cncc1Cn1c(CN2C[C@@H]3[C@H](C2)[C@H]3c2cccc3c2O[C@](C)(c2ccc(Cl)cc2F)O3)nc2c(F)cc(C(=O)O)cc21` (relative stereo) [Example 15, 2-((1R,5S,6s)-6-((R*)-2-(4-Chloro-2-fluorophenyl)-2-methylbenzo[d][1,3]dioxol-4-yl)-3-azabicyclo[3.1.0]hexan-3-yl)methyl)-1-((1-ethyl-1H-imidazol-5-yl)methyl)-4-fluoro-1H-benzo[d]imidazole-6-carboxylic acid], the EC50 at human GLP-1R receptor was determined as 8.6 nM; on GLP-1R, 3 nM.
